Laboratory results from article PMC10610188, “Structure–Activity Relationship Studies of Chalcones and Diarylpentanoids with Antitumor Activity: Potency and Selectivity Optimization” (Pharmaceuticals, 2023).
Read-outs that look alike come from different tables or passages of the source.

Key:
[1] = tested on: HFF-1 cells; assay: SRB growth inhibition assay in normal fibroblasts HFF-1; format: cell-based, human; conditions: for SI2: Selective index 2: GI50 of HFF-1/GI50 of HCT116 p53^+/+; for GI50: Homo sapiens, HFF-1, SRB assay, 48 h of treatment
Protocol: (§1) To study the in vitro antitumor potential of chalcone CM-M345 (1) and diarylpentanoid BP-C4 (2) analogues, the sulforhodamine B (SRB) assay was used to evaluate the antiproliferative activity in human colorectal HCT116 cancer cells. To assess their cytotoxicity toward normal cells, the antiproliferative effect of these compounds was also tested in human fibroblasts HFF-1 cells. In order to confirm if inhibition of proliferation was associated with p53 activation in HCT116 p53^+/+ cells, all compounds were also tested in HCT116 cells in which p53 was knocked out (HCT116 p53^−/−) and the selective index was calculated and compared to the compounds CM-M345 (1) and BP-C4 (2), for which p53-dependent antiproliferative activity was previously reported by our research group (Table 1).
(§2) The colorectal adenocarcinoma HCT116 cells (HCT116 p53^+/+) and its p53-null isogenic derivative (HCT116 p53^−/−) were given by Prof. Vogelstein (The Johns Hopkins Kimmel Cancer Center, Baltimore, USA); the normal human fibroblasts HFF-1 cell lines were from ATCC (Rockville, MD, USA). Human cells were cultured in RPMI-1640 with UltraGlutamine (Lonza, VWR, Portugal) with 10% FBS (Gibco, Alfagene, Portugal) at 37 °C with 5% CO2. The SH-SY5Y cells were cultured in DMEM/F-12 (Lonza) and 10% FBS and 2mM L-glutamine (Gibco). The cells were incubated at 37 °C in a humidified atmosphere of 5% CO2. Mycoplasma was routinely checked using the MycoAlert™ PLUS kit (Lonza). […]

[2] = tested on: human cancer cells; parameters: method as in PMID 34170069, doi:10.1016/j.arabjc.2016.04.015; conditions: read-out: GI50 against human cancer cells; cited from earlier work
[3] = tested on: HCT116 p53^−/− cells; assay: SRB growth inhibition assay in HCT116 p53-/- cells; format: cell-based, human; conditions: for SI1: Selective index 1: GI50 of HCT116 p53^−/−/GI50 of HCT116 p53^+/+; for GI50: Homo sapiens, HCT-116, SRB assay, 48 h of treatment
Protocol: as §1, §2

[4] = tested on: HCT116 p53^+/+ cells; conditions: SRB assay, cited from earlier work
[5] = tested on: HFF-1 cells; parameters: method as in Moreira et al. [21]; conditions: SRB assay; ref Moreira et al. [21]; cited from earlier work
[6] = tested on: HCT116 p53^−/− cells; conditions: SRB assay, cited from earlier work
[7] = target: T1, p53–MDM2 interaction (Homo sapiens, UniProt Q00987); assay: Yeast-based p53-MDM2 interaction screening assay; format: cell-based; conditions: 10 μM
T1 construct: expressed in transfected cells; host or cells: Saccharomyces cerevisiae strain CG379
Text: The possible activation of p53 by inhibiting its interaction with MDM2 was investigated using the yeast-based screening assay previously developed by our group. In this assay, compounds that inhibit p53–MDM2 interaction will re-establish the p53-induced growth-inhibitory effect, which was abolished by MDM2 [43].
In the yeast targeted screening assay, Saccharomyces cerevisiae (strain CG379) expressing human wt p53 alone and combined with human MDM2 were used as described. For the expression of human proteins (routinely grown in minimal selective medium), the cells were diluted to 0.05 OD600 in the selective induction medium with 2% (w/w) galactose, 1% (w/w) raffinose, 0.7% (w/w) yeast nitrogen base without amino acids from Difco (Quilaban, Sintra, Portugal), and all the amino acids necessary for yeast growth ([…]) except leucine and tryptophan. The yeast cells were incubated at 30 °C under continuous orbital shaking (200 rpm) with […] compounds or 0.1% DMSO only for over 42 h. Yeast growth was analyzed by counting the number of colony-forming units (CFUs) after 2 days of incubation at 30 °C on Sabouraud Dextrose Agar from Liofilchem (Frilabo, Porto, Portugal).

[8] = tested on: HCT116 p53^+/+ cells; assay: SRB growth inhibition assay in HCT116 p53+/+ cells; format: cell-based, human; conditions: for GI50: SRB assay, 48 h of treatment
Protocol: as §1, §2

[9] = tested on: PARP; assay: Western blot, PARP cleavage; format: cell-based, human; conditions: 5 µM, 48 h, HCT116 p53^+/+
Protocol: (§3) For Western blotting, 1.5 × 10^5 cells (per well) of HCT116 p53^+/+ cells were seeded in six-well plates and allowed to adhere for 24 h, followed by treatment with 5 μM 17 for 48 h. Protein extracts obtained from the human cancer cells were quantified using the Pierce™ BCA Protein Assay Kit (Thermo Scientific, Taper, Sintra, Portugal), according to the manufacturer’s instructions. The proteins were then run in SDS-PAGE and transferred to a Whatman nitrocellulose membrane from Protan (VWR, Carnaxide, Portugal). Proteins were detected using the primary antibodies anti-p53 (Santa Cruz Biotechnology, Dallas, TX, USA, SC-126, 1:5000), anti-BCL-2 (Santa Cruz Biotechnology, SC-7382, 1:200), anti-PARP (Cell Signaling, #9542, 1:1000), and anti-GAPDH (Santa Cruz Biotechnology, SC-32233, 1:10,000), followed by HRP-conjugated secondary antibodies anti-mouse (Santa Cruz Biotechnology, SC-2005, 1:2500) and anti-rabbit (Santa Cruz Biotechnology, SC-2006, 1:2500). GAPDH was used as a loading control. The signal was detected with an ECL Amersham kit from GE Healthcare (VWR) and the ChemiDoc™ MP Imaging System (Bio-Rad, Amadora, Portugal).

[10] = tested on: p53; assay: Western blot, p53 protein levels; format: cell-based, human; conditions: 5 µM, 48 h, HCT116 p53^+/+
Protocol: as §3

[11] = tested on: HCT116 p53^+/+ cells; assay: Annexin V-FITC apoptosis analysis by flow cytometry; format: cell-based, human; conditions: 5 µM, 48 h
Protocol: The 1.5 × 10^5 HCT116 p53^+/+ cells/well were seeded in 6-well plates and then treated with 5 µM 17 for 48 h. For the apoptosis analysis, an Annexin V-FITC Apoptosis Detection Kit I (BD Biosciences, Franklin Lakes, NJ, USA) was used following the manufacturer’s instructions. An AccuriTM C6 flow cytometer and the BD Accuri C6 software were used for data acquisition.

[12] = tested on: Bcl-2; assay: Western blot, Bcl-2 protein levels; format: cell-based, human; conditions: 5 µM, 48 h, HCT116 p53^+/+
Protocol: as §3

T1 sequence (Q00987 whole entry): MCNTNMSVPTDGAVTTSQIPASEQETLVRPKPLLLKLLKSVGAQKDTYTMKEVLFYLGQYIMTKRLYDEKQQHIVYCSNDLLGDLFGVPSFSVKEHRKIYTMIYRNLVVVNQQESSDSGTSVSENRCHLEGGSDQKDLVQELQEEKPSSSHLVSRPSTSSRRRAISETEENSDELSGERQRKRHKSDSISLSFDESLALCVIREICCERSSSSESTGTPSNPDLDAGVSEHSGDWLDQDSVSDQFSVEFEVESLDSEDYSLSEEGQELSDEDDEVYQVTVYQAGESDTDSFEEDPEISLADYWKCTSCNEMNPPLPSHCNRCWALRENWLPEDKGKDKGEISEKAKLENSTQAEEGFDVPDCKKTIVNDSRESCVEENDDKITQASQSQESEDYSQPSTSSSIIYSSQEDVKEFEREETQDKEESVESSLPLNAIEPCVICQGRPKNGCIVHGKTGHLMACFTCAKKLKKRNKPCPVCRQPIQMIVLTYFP

| Compound | SI2: Selective index 2 [1] | SI1: Selective index 1 [3] | GI50 [1] [µM] | GI50 [3] [µM] | GI50 ([8]; Homo sapiens, HCT-116, 48 h) [µM] | melting point [°C] | also measured |
| --- | --- | --- | --- | --- | --- | --- | --- |
| O=C1/C(=C/c2ccc(Cl)cc2)COC/C1=C\c1ccc(Cl)cc1 [BP-C4 (2), 3,5-bis((E)-4-chlorobenzylidene)tetrahydro-4H-pyran-4-one] | 5.79 | 1.62 |  |  |  |  | GI50 [2]: 6.25 µM; GI50 ([4]; ref Moreira et al. [21]): 6.25 ± 1.18 µM; GI50 [5]: 36.2 ± 5.54 µM; GI50 ([6]; ref Moreira et al. [21]): 10.1 ± 0.47 µM |
| COc1cc(/C=C2\COC/C(=C\c3cc(OC)c(OC)c(OC)c3)C2=O)cc(OC)c1OC [BP-M345 (1), reference compound] |  |  |  |  |  |  | GI50 ([4]; ref Moreira et al. [21]): 0.17 µM |
| CCCc1c(OC)ccc(C(=O)/C=C/c2cc(OC)c(OC)c(OC)c2)c1O [CM-M345 (1), (E)-1-(2-hydroxy-4-methoxy-3-propylphenyl)-3-(3,4,5-trimethoxyphenyl)prop-2-en-1-one] | 2.96 |  | 7.7 ± 0.8 |  |  |  | GI50 ([4]; ref Pereira et al. [23]): 2.6 ± 0.2 µM; GI50 ([6]; ref Pereira et al. [23]): 3.4 ± 0.1 µM |
| O=C1/C(=C/c2ccc(Cl)cc2)CSc2ccccc21 [Compound 16] | 5.25 | 11.5 | 3.62 ± 0.99 | 7.95 ± 0.85 | 0.69 ± 0.07 | 139 to 141 | effect on growth of control yeast (vectors) or yeast expressing p53 only [7]: without interfering with the growth; inhibition of the p53–MDM2 interaction in yeast co-expressing p53 and MDM2 [7]: behaved as a potential inhibitor of the p53-MDM2 interaction; selectivity for p53 compared to BP-C4 (2) ([3]; HCT116 p53^+/+ over p53^−/−): seven-fold increased; antiproliferative activity compared to BP-C4 (2) ([8]; HCT116 p53^+/+): nine-fold higher |
| O=C(/C=C/c1ccc(Cl)cc1)/C=C/c1ccc(Cl)cc1 [Compound 17] | 12.43 | 1.63 | 27.1 ± 1.25 | 3.55 ± 0.05 | 2.8 |  | GI50 value in HFF-1 cells relative to HCT116 p53^+/+ cells (fold higher) [1]: 12 fold; PARP cleavage (Western blot) [9]: PARP cleavage; p53 protein levels (Western blot) [10]: did not interfere with the p53 protein levels; apoptosis (annexin-positive cells) [11]: induced apoptosis; GI50 [8]: 2.18 ± 0.59 µM; Bcl-2 protein levels (Western blot) [12]: depletion of the protein levels of the anti-apoptotic protein Bcl-2 |
| CCCc1c(OC)ccc(C(O)/C=C/c2cc(OC)c(OC)c(OC)c2)c1O (stereo not drawn) [Compound 28, (E)-6-(1-hydroxy-3-(3,4,5-trimethoxyphenyl)allyl)-3-methoxy-2-propylphenol] | 1.13 | 0.80 | 17 ± 4.4 | 12 ± 5 | 15 ± 1.73 | 219 to 222 |  |
| OC1/C(=C/c2ccc(Cl)cc2)COC/C1=C\c1ccc(Cl)cc1 (stereo not drawn) [Compound 30, 3,5-bis((E)-4-chlorobenzylidene)tetrahydro-2H-pyran-4-ol] |  |  | > 30 | > 30 | > 30 | 219 to 222 |  |
| O=C1C(Cc2ccc(Cl)cc2)COCC1Cc1ccc(Cl)cc1 (stereo not drawn) [Compound 31, 3,5-bis(4-chlorobenzyl)tetrahydro-4H-pyran-4-one] |  |  | > 30 | > 30 | > 30 | 145 to 146 |  |
| CCCc1c(OC)ccc(C(=O)/C=C/c2ccc(Cl)cc2)c1O [Compound 32] | 1.17 | 1 | 11.1 ± 0.12 | 9.5 ± 0.1 | 9.5 ± 0.5 | 109 to 112 |  |
| CCCc1c(OC)ccc(C(=O)/C=C/c2ccc(F)cc2)c1O [Compound 33, (E)-3-(4-fluorophenyl)-1-(2-hydroxy-4-methoxy-3-propylphenyl)prop-2-en-1-one] | 0.89 | 0.77 | 8.23 ± 0.08 | 7.2 ± 0.32 | 9.25 ± 0.75 | 115 to 117 |  |
| CCCc1c(OC)ccc(C(=O)/C=C/c2ccc(Br)cc2)c1O [Compound 34, (E)-3-(4-bromophenyl)-1-(2-hydroxy-4-methoxy-3-propylphenyl)prop-2-en-1-one] | 0.80 | 0.62 | 14.9 ± 0.232 | 11.5 ± 0.145 | 18.5 ± 0.35 | 115 to 116 |  |
| CCCc1c(OC)ccc(C(=O)/C=C/c2ccc(N3CCOCC3)cc2)c1O [Compound 36, (E)-1-(2-hydroxy-4-methoxy-3-propylphenyl)-3-(4-morpholinophenyl)prop-2-en-1-one] | 3.08 |  | 15.7 ± 2.8 | 14.3 ± 1.1 | 5.1 to 10.7 | 129 to 131 | inhibition of the p53–MDM2 interaction in yeast co-expressing p53 and MDM2 [7]: seems not to be related to the inhibition of p53–MDM2 interaction; GI50 [8]: 5.1 ± 0.32 µM |
| CC(C)=CCOc1ccc(/C=C2\COC/C(=C\c3ccc(OCC=C(C)C)cc3)C2=O)cc1 [Compound 40, 3,5-bis((E)-4-((3-methylbut-2-en-1-yl)oxy)benzylidene)tetrahydro-4H-pyran-4-one] | 1.48 | 0.61 | 14.1 ± 0.08 | 5.8 ± 0.21 | 9.51 | 145 to 147 | GI50 [8]: 9.53 ± 0.25 µM |
